{
  "source": "patent US20260103474A1",
  "about": "“NOVEL COMPOUNDS FOR THE DIAGNOSIS OF TDP-43 PROTEINOPATHIES” (AC IMMUNE SA, priority 2022, published 2026)",
  "key": {"[1]": {"molecular_target": "T1, Human brain derived TDP-43 aggregates (Homo sapiens, UniProt Q13148)", "T1 construct": "Human FTD sarkosyl-insoluble brain extracts were spotted onto microarray slides", "T1 sequence (Q13148 261-414 limits assumed)": "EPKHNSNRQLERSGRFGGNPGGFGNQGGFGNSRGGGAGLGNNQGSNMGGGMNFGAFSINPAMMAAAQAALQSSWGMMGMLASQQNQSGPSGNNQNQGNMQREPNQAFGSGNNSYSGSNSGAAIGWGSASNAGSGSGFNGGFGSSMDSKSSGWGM", "test": "Micro-radiobinding competition assay for binding affinity to TDP-43", "conditions": "for pKi: 0.24 nM to 2 μM vs tritiated reference ligand at 40 nM; for Human brain derived TDP-43 aggregates Mean % competition at 250 nM: non-radiolabeled compound at 250 nM vs tritiated reference ligand at 40 nM; for Human brain derived TDP-43 aggregates Mean % competition at 250 nM / Human brain derived TDP-43 aggregates Mean % competition at 2 μM: FTD sarkosyl-insoluble brain extracts; for Human brain derived TDP-43 aggregates Mean % competition at 2 μM: non-radiolabeled compound at 2 μM vs tritiated reference ligand at 40 nM", "method": "Human brain extracts were prepared as described in Laferriere et al., 2019, Nature Neurosc. A sample of brain tissue (frontal or temporal cortex) was homogenized at 1:4 (w/v) ratio in the homogenization-solubilization (HS) buffer at 4° C. using tissue homogenizer (Precellys) with CKmix homogenization tubes. The following sequence was used for homogenization: 3 cycles of 30 seconds at 5000 rpm (with 15 seconds pause between each cycle). Homogenized samples were aliquoted and stored at −80° C. in 1.5 mL low protein binding tubes.\nBrain homogenates were thawed on ice and resuspended in HS buffer to obtain a final concentration of 2% sarkosyl, 1 unit/μL Benzonase and 1 mM MgCl2. The samples were then incubated at 37° C. under constant shaking at 600 rpm on a thermomixer for 45 minutes (min). The supernatants were collected in a new tube (sarkosyl-soluble fraction, S1). The pellet was resuspended in 1000 μL of myelin floatation buffer and centrifuged at 20,000 g for 60 min at 4° C. The supernatant was carefully removed to remove all the floating lipids. This step was repeated if all the lipids could not be removed in a single step. The pellet was subsequently washed with Phosphate-Buffered Saline (PBS) and centrifuged for 30 min at 20,000 g at 4° C. The final pellet was resuspended in 200 μL PBS and stored at −80° C. (sarkosyl-insoluble fraction). The samples were analyzed by immunoblotting in denaturing conditions.\nHuman FTD sarkosyl-insoluble brain extracts were spotted onto microarray slides. The slides were incubated with a tritiated reference ligand at 40 nM, and the example compounds (non-radiolabeled) at 2 μM and 250 nM. […] After incubation, slides were washed and scanned by a real-time autoradiography system (BeaQuant, ai4R). Quantification of the signal was performed by using the Beamage image analysis software (ai4R). Non-specific signal was determined with an excess of non-radiolabeled reference compound (2 μM) and specific binding was calculated by subtracting the non-specific signal from the total signal. Competition was calculated as percent, where 0% was defined as the specific binding in the presence of vehicle and 100% as the values obtained in the presence of excess of the non-radiolabeled reference compound. Ki values were calculated in GraphPad Prism8 by applying a nonlinear regression curve fit using a one site, specific binding model. Measurements were performed with at least two technical replicates in the two-concentration competition experiment and with one technical replicate in the experiments including a range of concentrations. For compounds tested in more than one experiment, the mean of the replicates or Ki values in independent experiments is reported."}, "TDP-43 aggregates": {"molecular_target": "TDP-43 aggregates (Homo sapiens, UniProt Q13148)", "sequence (Q13148 whole entry)": "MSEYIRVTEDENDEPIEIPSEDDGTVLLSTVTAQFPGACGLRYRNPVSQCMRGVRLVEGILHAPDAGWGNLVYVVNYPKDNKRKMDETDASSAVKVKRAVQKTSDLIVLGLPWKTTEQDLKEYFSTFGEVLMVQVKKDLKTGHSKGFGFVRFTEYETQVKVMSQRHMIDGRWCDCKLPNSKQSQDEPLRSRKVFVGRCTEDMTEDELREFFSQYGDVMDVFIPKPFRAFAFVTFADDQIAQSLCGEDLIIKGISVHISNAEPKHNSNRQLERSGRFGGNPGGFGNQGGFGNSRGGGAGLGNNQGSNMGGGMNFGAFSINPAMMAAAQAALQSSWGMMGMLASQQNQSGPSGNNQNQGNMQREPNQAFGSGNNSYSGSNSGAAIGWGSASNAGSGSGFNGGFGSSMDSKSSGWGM", "test": "Micro-autoradiography staining in brain sections from patients with FTD", "type": "binding", "parameters": "from tissue; host or cells: frozen post-mortem human brain sections (FTLD-TDP type A and type B; non-demented controls in the classical autoradiography)", "conditions": "120 nM", "method": "All tissues were collected from donors for or from whom a written informed consent for a brain autopsy and the use of the material and clinical information for research purposes had been obtained by the respective brain banks. All samples were anonymized and coded. Frozen brain tissue blocks with confirmed TDP-43 pathology upon autopsy were processed using a cryotome to generate sections of 10 μm in thickness and mounted on glass slides. Sections were kept at −80° C. until use.\nBrain sections were immunostained using a commercially available antibody, specific for phosphorylated serine at amino acid 409/410 (anti-pTDP-43 pS409/410, Biolegend, 829901). Sections were fixed for 15 minutes at 4° C. with 4% formaldehyde (Sigma, 252549) and washed three times for height minutes with 1×PBS (Dulbecco's phosphate buffered saline, Sigma D1408) at room temperature. Next, sections were saturated and permeabilized in blocking buffer (PBS, 10% normal goat serum (NGS), 0.25% Triton X-100) for one hour at room temperature and incubated overnight at 4° C. with primary antibody against pTDP-43 (diluted at 1/500 in PBS, 5% NGS, 0.25% Triton X-100). The following day, sections were washed three times for height minutes with 1×PBS before incubation with a secondary, AlexaFluor633-labeled goat-anti-rat antibody (Invitrogen, A-21094, diluted at 1/500 in PBS) for 45 minutes at room temperature. Following incubation with […] antibodies the sections were washed three times in PBS before being processed further.\nFor micro-autoradiography, tritiated test compound ([^3H]-Compound 1, [^3H]-Compound 9 or [^3H]-Compound 17 respectively) was incubated on the sections at 120 nM in 50 mM Tris buffer pH 7.4 for 45 minutes at room temperature. Sections were then washed as follows: once in ice-cold 50 mM Tris-HCl pH 7.4 buffer for one minute, twice in ice-cold 70% ethanol for one minute, once in ice-cold 50 mM Tris-HCl pH 7.4 buffer for one minute and finally rinsed briefly in ice-cold distilled water. Sections were subsequently dried for one hour under a stream of air and then exposed to Ilford Nuclear Emulsion Type K5 (Agar Scientific, AGP9281) for ten days at 4° C. in a light-proof slide storage box. The sections were developed by immersing them successively in the following solutions: 1.) Ilford Phenisol Developer (1:5 dilution in H2O, Agar Scientific, AGP9106) for four minutes, 2.) Ilfostop solution (1:20 dilution in H2O, Agar Scientific, AGP9104) for two minutes, 3.) Ilford Hypam Fixer (1:5 dilution in H2O, Agar Scientific, AGP9183) for four minutes and finally rinsed with H2O for 10 minutes.\nFor image acquisition, sections were mounted using ProLong Gold Antifade reagent (Invitrogen P36930) and imaged on a Panoramic250 Slide Scanner (3DHistech) with a 40× objective capturing brightfield and fluorescent images separately or on a Panoramic Scan II (3DHistech) with a 20× objective. The Visiopharm image analysis software suite was used to align the fluorescent image with the brightfield image."}},
  "note": "pKi: −log10 of the molar value.",
  "data": [
    {"smiles": "O=C1c2sc(-c3ccc(N4CC[C@@H](F)C4)nc3F)nc2CCN1c1cccnc1", "note": "[Compound 1, 2-[2-fluoro-6-[(3R)-3-fluoropyrrolidin-1-yl]-3-pyridyl]-5-(3-pyridyl)-6,7-dihydrothiazolo[5,4-c]pyridin-4-one]", "values": [
      {"measurement": "pKi", "setting": "[1]", "value": 7.66},
      {"measurement": "Human brain derived TDP-43 aggregates Mean % competition at 250 nM", "setting": "[1]", "value": 65, "unit": "%"},
      {"measurement": "Human brain derived TDP-43 aggregates Mean % competition at 2 μM", "setting": "[1]", "value": 78, "unit": "%"}
    ]},
    {"smiles": "O=C1c2sc(-c3ccc(N4CCC(CO)CC4)nc3F)nc2CCN1c1cccnc1", "note": "[Compound 17, 2-(2-fluoro-6-(4-(hydroxymethyl)piperidin-1-yl)pyridin-3-yl)-5-(pyridin-3-yl)-6,7-dihydrothiazolo[5,4-c]pyridin-4(5H)-one]", "values": [
      {"measurement": "pKi", "setting": "[1]", "value": 7.39},
      {"measurement": "Human brain derived TDP-43 aggregates Mean % competition at 250 nM", "setting": "[1]", "value": 73, "unit": "%"},
      {"measurement": "Human brain derived TDP-43 aggregates Mean % competition at 2 μM", "setting": "[1]", "value": 85, "unit": "%"}
    ]},
    {"smiles": "[3H]C([3H])(O)C1CCN(c2ccc(-c3nc4c(s3)C(=O)N(c3cccnc3)CC4)c(F)n2)CC1", "note": "[[^3H]-Compound 17, 2-(2-fluoro-6-(4-(hydroxymethyl-t2)piperidin-1-yl)pyridin-3-yl)-5-(pyridin-3-yl)-6,7-dihydrothiazolo[5,4-c]pyridin-4(5H)-one]", "values": [
      {"measurement": "Micro-autoradiography silver grain signal versus pTDP-43 immunostaining", "setting": "TDP-43 aggregates; FTLD-TDP type A brain sections", "value": "colocalization with pTDP-43 aggregates"},
      {"measurement": "Micro-autoradiography silver grain signal versus pTDP-43 immunostaining", "setting": "TDP-43 aggregates; FTLD-TDP type B brain sections", "value": "same colocalization was observed"}
    ]},
    {"smiles": "[3H]c1cncc(N2CCc3nc(-c4cc([3H])c(N5CC[C@@H](F)C5)nc4F)sc3C2=O)c1", "note": "[[^3H]-Compound 1, tritiated 2-[2-fluoro-6-[(3R)-3-fluoropyrrolidin-1-yl]-3-pyridyl]-5-(3-pyridyl)-6,7-dihydrothiazolo[5,4-c]pyridin-4-one]", "values": [
      {"measurement": "Micro-autoradiography silver grain signal versus pTDP-43 immunostaining", "setting": "TDP-43 aggregates; FTLD-TDP type A brain sections", "value": "colocalization with pTDP-43 aggregates"},
      {"measurement": "Micro-autoradiography silver grain signal versus pTDP-43 immunostaining", "setting": "TDP-43 aggregates; FTLD-TDP type B brain sections", "value": "same colocalization was observed"}
    ]}
  ]
}
